In series [1] the test system is larvae of the mustard beetle (Phaedon cochleariae). The series can be described thus: Phaedon test (PHAECO spray treatment). Conditions: Phaedon cochleariae, in Brassica rapa, foliar, read-out: effect in % (beetle larvae killed).
Series [2] deals with green peach aphid (Myzus persicae). The series can be described thus: Myzus test (MYZUPE spray treatment). The series is classed as in vivo. The following applies: Myzus persicae, foliar, read-out: effect in % (aphids killed). The text has this:
Solvent: 78 parts by weight of acetone
(§1) Solvent: 78.0 parts by weight of acetone

Series [3] deals with caterpillars of the armyworm (Spodoptera frugiperda). The series can be described thus: Spodoptera frugiperda test (SPODFR spray treatment). Format: in vivo. The following applies: Spodoptera frugiperda, foliar, read-out: effect in % (caterpillars killed).
Text: as §1

A short description of series [4]: log P determination by HPLC (EEC Directive 79/831 Annex V.A8). Format: physicochemical. The method, then:
The measurements were carried out using an Agilent 1100 LC system with a 50*4.6 Zorbax Eclipse C18 1.8 μm column (oven temperature 55° C., flow rate 2.0 ml/min).
The following mobile phases were used:
Mobile phase A: acetonitrile+1000 μl of formic acid/l
Mobile phase B: Millipore water+900 μl of formic acid/l

Like-named read-outs stand apart in the source and are kept apart here.

Take `Cc1cc(Cl)cc(C(=O)NCC#N)c1NC(=O)c1cc(Cn2nnc(C(F)(F)C(F)(F)C(F)(F)F)n2)nn1-c1ncccc1Cl` [Example 8]: the pest or weed control at 100 g/ha in series [1], in series [2] (in Brassica rapa) and in series [3] (in Zea mays) was not below 80% throughout. For the same compound, the chromatographic logP in series [4] (by HPLC according to EEC Directive 79/831 Annex V.A8, read-out: log P) was 3.65.

`Cc1cc(C#N)cc(C(=O)NC(C)(C)C)c1NC(=O)c1cc(Cn2nnc(C(F)(F)F)n2)nn1-c1ncccc1Cl` [Example 15]: the pest or weed control at 100 g/ha in series [1], in series [2] (in Brassica rapa) and in series [3] (in Zea mays) was not below 80% in each case. This compound displayed a chromatographic logP in series [4] (log P) of 3.4.

On to `Cc1cc(C#N)cc(C(N)=O)c1NC(=O)c1cc(Cn2nnc(C(F)(F)F)n2)nn1-c1ncccc1Cl` [Example 17], for which the pest or weed control at 100 g/ha in series [1], in series [2] (in Brassica rapa) and in series [3] (in Zea mays) was not below 80% each time. The chromatographic logP in series [4] (log P) was found to be 2.45.

For `Cc1cc(C#N)cc(C(=O)NCC#N)c1NC(=O)c1cc(Cn2nnc(C(F)(F)F)n2)nn1-c1ncccc1Cl` [Example 18], the pest or weed control at 100 g/ha in series [1], in series [2] (in Brassica rapa) and in series [3] (in Zea mays) was not below 80% throughout. In series [4] (log P), this compound came in with a chromatographic logP of 2.61.

With `Cc1cc(Cl)cc(C(=O)NCC#N)c1NC(=O)c1cc(Cn2nnc(C(F)(F)F)n2)nn1-c1ncccc1Cl` [Example 19], the pest or weed control at 100 g/ha in series [1], in series [2] (in Brassica rapa) and in series [3] (in Zea mays) was not below 80% throughout. In addition, the chromatographic logP in series [4] (log P) turned out to be 2.93.

As to `Cc1cc(C#N)cc(C(=O)NC(C)C2CC2)c1NC(=O)c1cc(Cn2nnc(C(F)(F)F)n2)nn1-c1ncccc1Cl` (stereo not shown) [Example 20], the pest or weed control at 100 g/ha in series [1], in series [2] (in Brassica rapa) and in series [3] (in Zea mays) was not below 80% each time. The compound further gave a chromatographic logP in series [4] (log P) of 3.33.

As for `CCNC(=O)c1cc(C#N)cc(C)c1NC(=O)c1cc(Cn2nnc(C(F)(F)F)n2)nn1-c1ncccc1Cl` [Example 21], the pest or weed control at 100 g/ha in series [1], in series [2] (in Brassica rapa) and in series [3] (in Zea mays) was not below 80% in each case. Also, in series [4] (log P), the chromatographic logP is 2.85.

As for `Cc1cc(C#N)cc(C(=O)NCC2CC2)c1NC(=O)c1cc(Cn2nnc(C(F)(F)F)n2)nn1-c1ncccc1Cl` [Example 23], the pest or weed control at 100 g/ha in series [1], in series [2] (in Brassica rapa) and in series [3] (in Zea mays) was not below 80% each time. For the same compound, in series [4] (log P), the chromatographic logP was 3.13.

With `Cc1cc(C#N)cc(C(=O)NC2CCC2)c1NC(=O)c1cc(Cn2nnc(C(F)(F)F)n2)nn1-c1ncccc1Cl` [Example 24], the pest or weed control at 100 g/ha in series [1], in series [2] (in Brassica rapa) and in series [3] (in Zea mays) was not below 80% throughout. Besides, the chromatographic logP in series [4] (log P) worked out at 3.18.

In the case of `Cc1cc(Br)cc(C(=O)NC2CC2)c1NC(=O)c1cc(Cn2nnc(C(F)(F)F)n2)nn1-c1ncccc1Cl` [Example 26], the pest or weed control at 100 g/ha in series [1], in series [2] (in Brassica rapa) and in series [3] (in Zea mays) was not below 80% throughout. This compound registered a chromatographic logP in series [4] (log P) of 3.3.

Regarding `Cc1cc(F)cc(C(=O)NC2CC2)c1NC(=O)c1cc(Cn2nnc(C(F)(F)F)n2)nn1-c1ncccc1Cl` [Example 27], the pest or weed control at 100 g/ha in series [1], in series [2] (in Brassica rapa) and in series [3] (in Zea mays) was not below 80% throughout. For the same compound, the chromatographic logP in series [4] (log P) came to 2.87.

In the case of `CNC(=O)c1cc(F)cc(C)c1NC(=O)c1cc(Cn2nnc(C(F)(F)F)n2)nn1-c1ncccc1Cl` [Example 29], the pest or weed control at 100 g/ha in series [1], in series [2] (in Brassica rapa) and in series [3] (in Zea mays) was not below 80% throughout. The chromatographic logP in series [4] (log P) was 2.66.

Turning to `Cc1cc(Cl)cc(C(=O)NC(C)C2CC2)c1NC(=O)c1cc(Cn2nnc(C(F)(F)F)n2)nn1-c1ncccc1Cl` (stereo not shown) [Example 30], the pest or weed control at 100 g/ha in series [1], in series [2] (in Brassica rapa) and in series [3] (in Zea mays) was not below 80% throughout. The compound further registered a chromatographic logP in series [4] (log P) of 3.79.

Take `Cc1cc(Br)cc(C(=O)NC(C)C2CC2)c1NC(=O)c1cc(Cn2nnc(C(F)(F)F)n2)nn1-c1ncccc1Cl` (stereo not shown) [Example 31]: the pest or weed control at 100 g/ha in series [1], in series [2] (in Brassica rapa) and in series [3] (in Zea mays) was not below 80% each time. In series [4] (log P), this compound showed a chromatographic logP of 3.89.

`Cc1cc(F)cc(C(=O)NC(C)C2CC2)c1NC(=O)c1cc(Cn2nnc(C(F)(F)F)n2)nn1-c1ncccc1Cl` (stereo not shown) [Example 32]: the pest or weed control at 100 g/ha in series [1], in series [2] (in Brassica rapa) and in series [3] (in Zea mays) was not below 80% in each case. The compound also registered a chromatographic logP in series [4] (log P) of 3.41.

For `CSC[C@H](C)NC(=O)c1cc(Cl)cc(C)c1NC(=O)c1cc(Cn2nnc(C(F)(F)F)n2)nn1-c1ncccc1Cl` [Example 41], the pest or weed control at 100 g/ha in series [1], in series [2] (in Brassica rapa) and in series [3] (in Zea mays) was not below 80% throughout. For the same compound, the chromatographic logP in series [4] (log P) was found to be 3.68.

For `CSC[C@H](C)NC(=O)c1cc(Br)cc(C)c1NC(=O)c1cc(Cn2nnc(C(F)(F)F)n2)nn1-c1ncccc1Cl` [Example 42], the pest or weed control at 100 g/ha in series [1], in series [2] (in Brassica rapa) and in series [3] (in Zea mays) was not below 80% in each case. Moreover, the chromatographic logP in series [4] (log P) was 3.77.

Regarding `CSC[C@H](C)NC(=O)c1cc(F)cc(C)c1NC(=O)c1cc(Cn2nnc(C(F)(F)F)n2)nn1-c1ncccc1Cl` [Example 43], the pest or weed control at 100 g/ha in series [1], in series [2] (in Brassica rapa) and in series [3] (in Zea mays) was not below 80% each time. This compound also registered a chromatographic logP in series [4] (log P) of 3.31.

On to `Cc1cc(Br)cc(C(N)=O)c1NC(=O)c1cc(Cn2nnc(C(F)(F)F)n2)nn1-c1ncccc1Cl` [Example 44], for which the pest or weed control at 100 g/ha in series [1], in series [2] (in Brassica rapa) and in series [3] (in Zea mays) was not below 80% throughout. The compound further yielded a chromatographic logP in series [4] (log P) of 2.81.

As for `Cc1cc(F)cc(C(N)=O)c1NC(=O)c1cc(Cn2nnc(C(F)(F)F)n2)nn1-c1ncccc1Cl` [Example 45], the pest or weed control at 100 g/ha in series [1], in series [2] (in Brassica rapa) and in series [3] (in Zea mays) was not below 80% each time. In addition, in series [4] (log P), the chromatographic logP is 2.46.

Regarding `Cc1cc(Br)cc(C(=O)NCC#N)c1NC(=O)c1cc(Cn2nnc(C(F)(F)F)n2)nn1-c1ncccc1Cl` [Example 52], the pest or weed control at 100 g/ha in series [1], in series [2] (in Brassica rapa) and in series [3] (in Zea mays) was not below 80% each time. The chromatographic logP in series [4] (log P) came out at 3.02.

Turning to `Cc1cc(F)cc(C(=O)NCC#N)c1NC(=O)c1cc(Cn2nnc(C(F)(F)F)n2)nn1-c1ncccc1Cl` [Example 53], the pest or weed control at 100 g/ha in series [1], in series [2] (in Brassica rapa) and in series [3] (in Zea mays) was not below 80% each time. The chromatographic logP in series [4] (log P) turned out to be 2.67.

For the compound `Cc1cc(I)cc(C(=O)NC2CC2)c1NC(=O)c1cc(Cn2nnc(C(F)(F)F)n2)nn1-c1ncccc1C(F)(F)F` [Example 246], the pest or weed control at 100 g/ha in series [1] is not below 80%; in series [2] (application rate 100 g/ha, Chinese cabbage leaf discs) it was not below 80%; in series [3] (application rate 100 g/ha, maize leaf discs) it was not below 80%.
